The results in this text go back to patent publication US8933232B2, “1,3,4-oxadiazole and 1,3,4-thiadiazole beta-lactamase inhibitors” (priority 2012, dated 2015).

Where a name gives a salt, the structure may show the parent alone.

This assay has as its system bacterial strains that express KPC β-lactamases. Briefly: Synergy MIC / standard BLI potentiation MIC assay against strains expressing KPC β-lactamases. The format is cell-based. The settings on record: in the presence of a β-lactam; comparator Avibactam. As to the method:
The experimental protocol was performed according to Clinical and Laboratory Standards Institute (CLSI) guidelines with modifications as described below (CLSI guidelines can be derived from the CLSI document M07-A9 published in January 2012: “Methods for Dilution Antimicrobial Susceptibility Tests for Bacteria That Grow Aerobically; Approved Standard-Ninth Edition”).
To prepare for MIC testing, frozen glycerol stocks of clinical isolates (Klebsiella pneumoniae, Eschericia coli, Enterobacter spp, Citrobacter spp, or Pseudomonas aeruginosa) were used to streak for isolated colonies on rich, non-selective, tryptic soy agar containing 5% sheep's blood (TSAB). Frozen glycerol stocks of laboratory engineered, isogenic E. coli strains, which contain cloned β-lactamase expressing plasmids were used to streak for isolated colonies on rich, selective LB agar supplemented with 25 μg/mL tetracycline to maintain the plasmid. All strains were incubated at 37° C. for 18-24 hrs.
On the day of testing, primary cultures were started by scraping off 5-10 colonies from the TSAB plates containing clinical strains or the tetracycline supplemented LB plates containing engineered strains. The clinical strain material was suspended in ˜5 mL of cation adjusted Mueller Hinton Broth (CAMHB) in 14 mL culture tubes. The engineered strain material was suspended in CAMHB (supplemented with 25 μg/mL tetracycline) in 14 mL culture tubes. All strains were incubated at 37° C. with aeration (200 rpm) for ˜2 hrs until the optical density at 600 nm (OD600) was >0.1.
The two compound components of the assay were each diluted in CAMHB and added to the 96-well broth microdilution assay plates. 50 μL of the β-lactam was added to each well of the assay plate in 2-fold dilutions with final concentrations ranging from 128 to 0.13 μg/mL. 25 μL, of the BLI compound was added to all wells in the broth microdilution plates at a final concentration of 4 μg/mL. Inoculum cultures were prepared by standardizing the primary cultures to OD600=0.1 and then adding 20 μL of the adjusted primary culture per 1 mL CAMHB for clinical strains or CAMHB (supplemented with tetracycline at 100 μg/mL) for engineered strains, so that the final inoculum density was ˜10^5 colony forming units per milliliter. Diluted inoculum cultures were used to inoculate 25 μl, per well in 96-well broth microdilution assay plates. The final volume of each well was 100 μL and contained a β-lactam at different concentrations, a BLIcompound at 4 μg/mL concentration, the bacterial culture at an OD600 of approximately 0.001 and when necessary tetracycline at 25 μg/mL.
Plates were incubated for 18-20 hours at 37° C. with aeration (200 rpm). Following incubation, growth was confirmed visually placing plates over a viewing apparatus (stand with a mirror underneath) and then OD600 was measured using a SpectraMax 340PC384 plate reader (Molecular Devices, Sunnyvale, Calif.). Growth was defined as turbidity that could be detected with the naked eye or achieving minimum OD600 of 0.1. MIC values were defined as the lowest concentration producing no visible turbidity.
The synergy MIC (sMIC) assay determines the concentration of the BLI required to potentiate the activity of a fixed concentration of a β-lactam antibiotic against β-lactamase producing bacterial strains. The experimental protocol was performed according to Clinical and Laboratory Standards Institute (CLSI) guidelines with modifications as described below (CLSI guidelines can be derived from the CLSI document M07-A9 published in January 2012: “Methods for Dilution Antimicrobial Susceptibility Tests for Bacteria That Grow Aerobically; Approved Standard-Ninth Edition”). […]
Take `O=C1N2C[C@@H](CC[C@H]2c2nnco2)N1OS(=O)(=O)O` [Compound 701, (2S,5R)-2-(1,3,4-oxadiazol-2-yl)-7-oxo-1,6-diazabicyclo[3.2.1]octan-6-yl hydrogen sulfate]: the “more active than Avibactam for at least one bacterial strain that expresses KPC β-lactamase and/or better spectrum of activity against KPC strains” value (shortened to “more active than Avibactam … against KPC strains”) is “more active than Avibactam”.

Turning to `NCc1nnc([C@@H]2CC[C@@H]3CN2C(=O)N3OS(=O)(=O)O)o1` [Compound 702, (2S,5R)-2-(5-(aminomethyl)-1,3,4-oxadiazol-2-yl)-7-oxo-1,6-diazabicyclo[3.2.1]octan-6-yl hydrogen sulfate], the “more active than Avibactam … against KPC strains” value is “more active than Avibactam”.

For the compound `NCCc1nnc([C@@H]2CC[C@@H]3CN2C(=O)N3OS(=O)(=O)O)o1` [Compound 703, (2S,5R)-2-(5-(2-aminoethyl)-1,3,4-oxadiazol-2-yl)-7-oxo-1,6-diazabicyclo[3.2.1]octan-6-yl hydrogen sulfate], the “more active than Avibactam … against KPC strains” value was “more active than Avibactam”.

Turning to `N=C(N)NCCc1nnc([C@@H]2CC[C@@H]3CN2C(=O)N3OS(=O)(=O)O)o1` [Compound 705, (2S,5R)-2-(5-(2-guanidinoethyl)-1,3,4-oxadiazol-2-yl)-7-oxo-1,6-diazabicyclo[3.2.1]octan-6-yl hydrogen sulfate], the “more active than Avibactam … against KPC strains” value was “more active than Avibactam”.

For the compound `NC(=O)c1nnc([C@@H]2CC[C@@H]3CN2C(=O)N3OS(=O)(=O)O)o1` [Compound 706, (2S,5R)-2-(5-carbamoyl-1,3,4-oxadiazol-2-yl)-7-oxo-1,6-diaza-bicyclo[3.2.1]octan-6-yl hydrogen sulfate], the “more active than Avibactam … against KPC strains” value is given as “more active than Avibactam”.

As to `O=C1N2C[C@@H](CC[C@H]2c2nnc(C3CNC3)o2)N1OS(=O)(=O)O` [Compound 708, (2S,5R)-2-(5-(azetidin-3-yl)-1,3,4-oxadiazol-2-yl)-7-oxo-1,6-diazabicyclo[3.2.1]octan-6-yl hydrogen sulfate], the “more active than Avibactam … against KPC strains” value is “more active than Avibactam”.

`N=C(N)N1CC(c2nnc([C@@H]3CC[C@@H]4CN3C(=O)N4OS(=O)(=O)O)o2)C1` [Compound 709, (2S,5R)-2-(5-(1-carbamimidoylazetidin-3-yl)-1,3,4-oxadiazol-2-yl)-7-oxo-1,6-diazabicyclo[3.2.1]octan-6-yl hydrogen sulfate]: the “more active than Avibactam … against KPC strains” value is on record as “more active than Avibactam”.

As to `O=C1N2C[C@@H](CC[C@H]2c2nnc(C3CCNC3)o2)N1OS(=O)(=O)O` (stereo partly drawn) [Compound 710, (2S,5R)-7-oxo-2-(5-(pyrrolidin-3-yl)-1,3,4-oxadiazol-2-yl)-1,6-diazabicyclo[3.2.1]octan-6-yl hydrogen sulfate], the “more active than Avibactam … against KPC strains” value is given as “more active than Avibactam”.

With `O=C1N2C[C@@H](CC[C@H]2c2nnc(C3CCNCC3)o2)N1OS(=O)(=O)O` [Compound 711, (2S,5R)-7-oxo-2-(5-(piperidin-4-yl)-1,3,4-oxadiazol-2-yl)-1,6-diazabicyclo[3.2.1]octan-6-yl hydrogen sulfate], the “more active than Avibactam … against KPC strains” value was “more active than Avibactam”.

Regarding `NCCCc1nnc([C@@H]2CC[C@@H]3CN2C(=O)N3OS(=O)(=O)O)o1` [Compound 720, (2S,5R)-2-(5-(3-aminopropyl)-1,3,4-oxadiazol-2-yl)-7-oxo-1,6-diazabicyclo[3.2.1]octan-6-yl hydrogen sulfate], the “more active than Avibactam … against KPC strains” value was “more active than Avibactam”.

`N=C(N)NCc1nnc([C@@H]2CC[C@@H]3CN2C(=O)N3OS(=O)(=O)O)s1` [Compound 721, (2S,5R)-2-(5-(guanidinomethyl)-1,3,4-thiadiazol-2-yl)-7-oxo-1,6-diazabicyclo[3.2.1]octan-6-yl hydrogen sulfate]: the “more active than Avibactam … against KPC strains” value is on record as “more active than Avibactam”.

For `CNCCc1nnc([C@@H]2CC[C@@H]3CN2C(=O)N3OS(=O)(=O)O)o1` [Compound 722, (2S,5R)-2-(5-(2-(methylamino)ethyl)-1,3,4-oxadiazol-2-yl)-7-oxo-1,6-diazabicyclo[3.2.1]octan-6-yl hydrogen sulfate], the “more active than Avibactam … against KPC strains” value is “more active than Avibactam”.

For `N=C(N)NCC1(c2nnc([C@@H]3CC[C@@H]4CN3C(=O)N4OS(=O)(=O)O)o2)CC1` [Compound 723, (2S,5R)-2-(5-(1-(guanidinomethyl)cyclopropyl)-1,3,4-oxadiazol-2-yl)-7-oxo-1,6-diazabicyclo[3.2.1]octan-6-yl hydrogen sulfate], the “more active than Avibactam … against KPC strains” value was “more active than Avibactam”.

As to `NC1(Cc2nnc([C@@H]3CC[C@@H]4CN3C(=O)N4OS(=O)(=O)O)o2)CC1` [Compound 724, (2S,5R)-2-(5-((1-aminocyclopropyl)methyl)-1,3,4-oxadiazol-2-yl)-7-oxo-1,6-diazabicyclo[3.2.1]octan-6-yl hydrogen sulfate], the “more active than Avibactam … against KPC strains” value is “more active than Avibactam”.

Consider `O=C1N2C[C@@H](CC[C@H]2c2nnc(CNC3CNC3)o2)N1OS(=O)(=O)O` [Compound 726, (2S,5R)-2-(5-((azetidin-3-ylamino)methyl)-1,3,4-oxadiazol-2-yl)-7-oxo-1,6-diazabicyclo[3.2.1]octan-6-yl hydrogen sulfate], for which the “more active than Avibactam … against KPC strains” value was “more active than Avibactam”.

On to `N[C@H]1C[C@H](c2nnc([C@@H]3CC[C@@H]4CN3C(=O)N4OS(=O)(=O)O)o2)C1` [Compound 727, (2S,5R)-2-(5-((1r,3S)-3-aminocyclobutyl)-1,3,4-oxadiazol-2-yl)-7-oxo-1,6-diazabicyclo[3.2.1]octan-6-yl hydrogen sulfate], for which the “more active than Avibactam … against KPC strains” value was “more active than Avibactam”.

Take `N[C@H]1C[C@@H](Cc2nnc([C@@H]3CC[C@@H]4CN3C(=O)N4OS(=O)(=O)O)o2)C1` [Compound 728, (2S,5R)-2-(5-(((1s,3R)-3-aminocyclobutyl)methyl)-1,3,4-oxadiazol-2-yl)-7-oxo-1,6-diazabicyclo[3.2.1]octan-6-yl hydrogen sulfate]: the “more active than Avibactam … against KPC strains” value is listed as “more active than Avibactam”.

In the case of `N[C@@H]1CC[C@H](c2nnc([C@@H]3CC[C@@H]4CN3C(=O)N4OS(=O)(=O)O)o2)C1` [Compound 729, (2S,5R)-2-(5-((1S,3R)-3-aminocyclopentyl)-1,3,4-oxadiazol-2-yl)-7-oxo-1,6-diazabicyclo[3.2.1]octan-6-yl hydrogen sulfate], the “more active than Avibactam … against KPC strains” value is reported as “more active than Avibactam”.

In the case of `N=C(N)NCC(O)Cc1nnc([C@@H]2CC[C@@H]3CN2C(=O)N3OS(=O)(=O)O)o1` (stereo partly drawn) [Compound 730, (2S,5R)-2-(5-(3-guanidino-2-hydroxypropyl)-1,3,4-oxadiazol-2-yl)-7-oxo-1,6-diazabicyclo[3.2.1]octan-6-yl hydrogen sulfate], the “more active than Avibactam … against KPC strains” value is “more active than Avibactam”.

Consider `N=C(N)NC[C@@H](O)c1nnc([C@@H]2CC[C@@H]3CN2C(=O)N3OS(=O)(=O)O)o1` [Compound 731, (2S,5R)-2-(5-((R)-2-guanidino-1-hydroxyethyl)-1,3,4-oxadiazol-2-yl)-7-oxo-1,6-diazabicyclo[3.2.1]octan-6-yl hydrogen sulfate], for which the “more active than Avibactam … against KPC strains” value was “more active than Avibactam”.
